# Key:
# Format in all cases: functional
# Lactobacillus jensenii = assay: Antimicrobial activity against Lactobacillus jensenii by Wadsworth agar dilution method
# [1] = system: Clostridium paraputrificum; assay: Antimicrobial activity against Clostridium paraputrificum by Wadsworth agar dilution method
# Blautia luti = assay: Antimicrobial activity against Ruminococcus luti by Wadsworth agar dilution method
# Porphyromonas = assay: Antimicrobial activity against Porphyromonas sp. by Wadsworth agar dilution method
# Clostridium tertium = assay: Antimicrobial activity against Clostridium tertium by Wadsworth agar dilution method
# [2] = system: Lactobacillus catenaformis; assay: Antimicrobial activity against Lactobacillus catenaformis by Wadsworth agar dilution method; conditions: Eggerthia catenaformis
# [3] = system: Pseudoramibacter alactolyticus; assay: Antimicrobial activity against Eubacterium alactolyticum by Wadsworth agar dilution method
# Holdemania filiformis = assay: Antimicrobial activity against Holdemania filiformis by Wadsworth agar dilution method
# Prevotella corporis = assay: Antimicrobial activity against Prevotella corporis by Wadsworth agar dilution method
# Fusobacterium varium = assay: Antimicrobial activity against Fusobacterium varium by Wadsworth agar dilution method
# Clostridium fallax = assay: Antimicrobial activity against Clostridium fallax by Wadsworth agar dilution method
# [4] = system: Parabacteroides goldsteinii; assay: Antimicrobial activity against Parabacteroides goldsteinii by Wadsworth agar dilution method
# [5] = Antimicrobial activity against Bifidobacterium pseudocatenulatum by Wadsworth agar dilution method
# Thomasclavelia ramosa = assay: Antimicrobial activity against Clostridium ramosum by Wadsworth agar dilution method
# Ruminococcus torques = assay: Antimicrobial activity against Ruminococcus torques by Wadsworth agar dilution method; conditions: Mediterraneibacter torques
# Bacteroides nordii = assay: Antimicrobial activity against Bacteroides nordii by Wadsworth agar dilution method
# [6] = system: Clostridium lactatifermentans; assay: Antimicrobial activity against Clostridium lactatifermentans by Wadsworth agar dilution method; conditions: Anaerotignum lactatifermentans
# Blautia producta = assay: Antimicrobial activity against Ruminococcus productus by Wadsworth agar dilution method
# [7] = system: Propionibacterium propionicum; assay: Antimicrobial activity against Propionibacterium propionicum by Wadsworth agar dilution method; conditions: Arachnia propionica
# Flavonifractor plautii = assay: Antimicrobial activity against Clostridium orbiscindens by Wadsworth agar dilution method
# Atopobium minutum = assay: Antimicrobial activity against Atopobium minutum by Wadsworth agar dilution method
# [8] = system: Porphyromonas asaccharolytica; assay: Antimicrobial activity against Porphyromonas asaccharolyticus by Wadsworth agar dilution method
# Bilophila wadsworthia = assay: Antimicrobial activity against Bilophila wadsworthia by Wadsworth agar dilution method in presence of 1% pyruvic acid
# [9] = system: Catenibacterium mitsuokai; assay: Antimicrobial activity against Catenibacterium mitsuokai by Wadsworth agar dilution method
# [10] = system: Ruminococcus flavefaciens; assay: Antimicrobial activity against Ruminococcus flavefaciens by Wadsworth agar dilution method
# Clostridium leptum = assay: Antimicrobial activity against Clostridium leptum by Wadsworth agar dilution method
# [11] = system: Clostridium aminobutyricum; assay: Antimicrobial activity against Clostridium aminobutyricum by Wadsworth agar dilution method
# [12] = system: Peptostreptococcus anaerobius; assay: Antimicrobial activity against Peptostreptococcus anaerobius by Wadsworth agar dilution method
# Bifidobacterium breve = assay: Antimicrobial activity against Bifidobacterium breve by Wadsworth agar dilution method
# [13] = system: Desulfovibrio desulfuricans; assay: Antimicrobial activity against Desulfovibrio desulfuricans by Wadsworth agar dilution method
# Hoylesella loescheii = assay: Antimicrobial activity against Prevotella loescheii by Wadsworth agar dilution method
# Actinomyces viscosus = assay: Antimicrobial activity against Actinomyces viscosus by Wadsworth agar dilution method
# [14] = system: Prevotella melaninogenica; assay: Antimicrobial activity against Prevotella melaninogenica by Wadsworth agar dilution method
# [15] = system: Desulfovibrio fairfieldensis; assay: Antimicrobial activity against Desulfovibrio fairfieldensis by Wadsworth agar dilution method
# Peptoniphilus harei = assay: Antimicrobial activity against Peptoniphilus harei by Wadsworth agar dilution method
# Bacteroides stercoris = assay: Antimicrobial activity against Bacteroides stercoris by Wadsworth agar dilution method
# Clostridium sporogenes = assay: Antimicrobial activity against Clostridium sporogenes by Wadsworth agar dilution method
# Collinsella aerofaciens = assay: Antimicrobial activity against Colinsella aerofaciens by Wadsworth agar dilution method
# Fusobacterium mortiferum = assay: Antimicrobial activity against Clostridium rectum by Wadsworth agar dilution method
# Clostridium symbiosum = assay: Antimicrobial activity against Clostridium symbiosum by Wadsworth agar dilution method
# Desulfovibrio sp. = assay: Antimicrobial activity against Desulfovibrio sp. by Wadsworth agar dilution method
# Anaerococcus prevotii = assay: Antimicrobial activity against Anaerococcus prevotii by Wadsworth agar dilution method
# Parabacteroides merdae = assay: Antimicrobial activity against Parabacteroides merdae by Wadsworth agar dilution method
# [Clostridium] innocuum = Antimicrobial activity against Clostridium innocuum by Wadsworth agar dilution method
# Eubacterium saburreum = assay: Antimicrobial activity against Eubacterium saburreum by Wadsworth agar dilution method; conditions: Lachnoanaerobaculum saburreum
# Clostridium butyricum = assay: Antimicrobial activity against Clostridium butyricum by Wadsworth agar dilution method
# Bacteroides caccae = assay: Antimicrobial activity against Bacteroides caccae by Wadsworth agar dilution method
smiles,measurement,setting,value
CC(=O)Oc1ccccc1C(=O)Nc1ncc([N+](=O)[O-])s1 [NITAZOXANIDE],MIC50,Lactobacillus jensenii,2 µg/mL
same,MIC90,Lactobacillus jensenii,32 µg/mL
same,MIC50,[1],0.5 µg/mL
same,MIC90,[1],4 µg/mL
same,MIC50,Blautia luti,0.5 µg/mL
same,MIC90,Blautia luti,1 µg/mL
same,MIC50,Porphyromonas,0.5 µg/mL
same,MIC90,Porphyromonas,1 µg/mL
same,MIC50,Clostridium tertium,0.5 µg/mL
same,MIC90,Clostridium tertium,4 µg/mL
same,MIC50,[2],2 µg/mL
same,MIC90,[2],32 µg/mL
same,MIC50,[3],2 µg/mL
same,MIC90,[3],32 µg/mL
same,MIC50,Holdemania filiformis,2 µg/mL
same,MIC90,Holdemania filiformis,32 µg/mL
same,MIC50,Prevotella corporis,4 µg/mL
same,MIC90,Prevotella corporis,8 µg/mL
same,MIC50,Fusobacterium varium,1 µg/mL
same,MIC90,Fusobacterium varium,8 µg/mL
same,MIC50,Clostridium fallax,0.5 µg/mL
same,MIC90,Clostridium fallax,4 µg/mL
same,MIC50,[4],4 µg/mL
same,MIC90,[4],4 µg/mL
same,MIC50,[5],2 µg/mL
same,MIC90,[5],32 µg/mL
same,MIC50,Thomasclavelia ramosa,0.5 µg/mL
same,MIC90,Thomasclavelia ramosa,4 µg/mL
same,MIC50,Ruminococcus torques,0.5 µg/mL
same,MIC90,Ruminococcus torques,1 µg/mL
same,MIC50,Bacteroides nordii,4 µg/mL
same,MIC90,Bacteroides nordii,4 µg/mL
same,MIC50,[6],0.5 µg/mL
same,MIC90,[6],4 µg/mL
same,MIC50,Blautia producta,0.5 µg/mL
same,MIC90,Blautia producta,1 µg/mL
same,MIC50,[7],2 µg/mL
same,MIC90,[7],32 µg/mL
same,MIC,Flavonifractor plautii,0.25 µg/mL
same,MIC50,Flavonifractor plautii,0.25 µg/mL
same,MIC90,Flavonifractor plautii,0.5 µg/mL
same,MIC50,Atopobium minutum,2 µg/mL
same,MIC90,Atopobium minutum,32 µg/mL
same,MIC50,[8],0.5 µg/mL
same,MIC90,[8],1 µg/mL
same,MIC50,Bilophila wadsworthia,4 µg/mL
same,MIC90,Bilophila wadsworthia,4 µg/mL
same,MIC50,[9],2 µg/mL
same,MIC90,[9],32 µg/mL
same,MIC50,[10],0.5 µg/mL
same,MIC90,[10],1 µg/mL
same,MIC50,Clostridium leptum,0.5 µg/mL
same,MIC90,Clostridium leptum,4 µg/mL
same,MIC50,[11],0.5 µg/mL
same,MIC90,[11],4 µg/mL
same,MIC50,[12],0.5 µg/mL
same,MIC90,[12],1 µg/mL
same,MIC50,Bifidobacterium breve,2 µg/mL
same,MIC90,Bifidobacterium breve,32 µg/mL
same,MIC50,[13],4 µg/mL
same,MIC90,[13],4 µg/mL
same,MIC50,Hoylesella loescheii,4 µg/mL
same,MIC90,Hoylesella loescheii,8 µg/mL
same,MIC50,Actinomyces viscosus,2 µg/mL
same,MIC90,Actinomyces viscosus,32 µg/mL
same,MIC50,[14],4 µg/mL
same,MIC90,[14],8 µg/mL
same,MIC50,[15],1 µg/mL
same,MIC90,[15],4 µg/mL
same,MIC50,Peptoniphilus harei,0.5 µg/mL
same,MIC90,Peptoniphilus harei,1 µg/mL
same,MIC50,Bacteroides stercoris,4 µg/mL
same,MIC90,Bacteroides stercoris,4 µg/mL
same,MIC50,Clostridium sporogenes,0.5 µg/mL
same,MIC90,Clostridium sporogenes,4 µg/mL
same,MIC50,Collinsella aerofaciens,2 µg/mL
same,MIC90,Collinsella aerofaciens,32 µg/mL
same,MIC50,Fusobacterium mortiferum,0.5 µg/mL
same,MIC90,Fusobacterium mortiferum,4 µg/mL
same,MIC50,Clostridium symbiosum,0.5 µg/mL
same,MIC90,Clostridium symbiosum,4 µg/mL
same,MIC50,Desulfovibrio sp.,1 µg/mL
same,MIC90,Desulfovibrio sp.,4 µg/mL
same,MIC50,Anaerococcus prevotii,0.5 µg/mL
same,MIC90,Anaerococcus prevotii,1 µg/mL
same,MIC50,Parabacteroides merdae,4 µg/mL
same,MIC90,Parabacteroides merdae,4 µg/mL
same,MIC50,[Clostridium] innocuum,1 µg/mL
same,MIC90,[Clostridium] innocuum,4 µg/mL
same,MIC50,Eubacterium saburreum,2 µg/mL
same,MIC90,Eubacterium saburreum,32 µg/mL
same,MIC50,Clostridium butyricum,0.5 µg/mL
same,MIC90,Clostridium butyricum,4 µg/mL
same,MIC50,Bacteroides caccae,2 µg/mL
same,MIC90,Bacteroides caccae,4 µg/mL
NC[C@@H]1O[C@H](O[C@H]2[C@@H](O)[C@H](O[C@@H]3[C@@H](O)[C@H](N)C[C@H](N)[C@H]3O[C@H]3O[C@H](CN)[C@@H](O)[C@H](O)[C@H]3N)O[C@@H]2CO)[C@H](N)[C@@H](O)[C@@H]1O [FRAMYCETIN],MIC50,Lactobacillus jensenii,128 µg/mL
same,MIC90,Lactobacillus jensenii,1020 µg/mL
same,MIC50,[1],256 µg/mL
same,MIC90,[1],1020 µg/mL
same,MIC50,Blautia luti,128 µg/mL
same,MIC90,Blautia luti,512 µg/mL
same,MIC50,Porphyromonas,512 µg/mL
same,MIC90,Porphyromonas,> 1020 µg/mL
same,MIC50,Clostridium tertium,256 µg/mL
same,MIC90,Clostridium tertium,1020 µg/mL
same,MIC50,[2],128 µg/mL
same,MIC90,[2],1020 µg/mL
same,MIC50,[3],128 µg/mL
same,MIC90,[3],1020 µg/mL
same,MIC50,Holdemania filiformis,128 µg/mL
same,MIC90,Holdemania filiformis,1020 µg/mL
same,MIC50,Prevotella corporis,512 µg/mL
same,MIC90,Prevotella corporis,1020 µg/mL
same,MIC50,Fusobacterium varium,512 µg/mL
same,MIC90,Fusobacterium varium,> 1020 µg/mL
same,MIC50,Clostridium fallax,256 µg/mL
same,MIC90,Clostridium fallax,1020 µg/mL
same,MIC50,[4],1020 µg/mL
same,MIC90,[4],> 1020 µg/mL
same,MIC50,[5],128 µg/mL
same,MIC90,[5],1020 µg/mL
same,MIC50,Thomasclavelia ramosa,256 µg/mL
same,MIC90,Thomasclavelia ramosa,1020 µg/mL
same,MIC50,Ruminococcus torques,128 µg/mL
same,MIC90,Ruminococcus torques,512 µg/mL
same,MIC50,Bacteroides nordii,> 1020 µg/mL
same,MIC90,Bacteroides nordii,> 1020 µg/mL
same,MIC50,[6],256 µg/mL
same,MIC90,[6],1020 µg/mL
same,MIC50,Blautia producta,128 µg/mL
same,MIC90,Blautia producta,512 µg/mL
same,MIC50,[7],128 µg/mL
same,MIC90,[7],1020 µg/mL
same,MIC50,Flavonifractor plautii,256 µg/mL
same,MIC90,Flavonifractor plautii,512 µg/mL
same,MIC50,Atopobium minutum,128 µg/mL
same,MIC90,Atopobium minutum,1020 µg/mL
same,MIC50,[8],512 µg/mL
same,MIC90,[8],> 1020 µg/mL
same,MIC50,Bilophila wadsworthia,> 1020 µg/mL
same,MIC90,Bilophila wadsworthia,> 1020 µg/mL
same,MIC50,[9],128 µg/mL
same,MIC90,[9],1020 µg/mL
same,MIC50,[10],128 µg/mL
same,MIC90,[10],512 µg/mL
same,MIC50,Clostridium leptum,256 µg/mL
same,MIC90,Clostridium leptum,1020 µg/mL
same,MIC50,[11],256 µg/mL
same,MIC90,[11],1020 µg/mL
same,MIC50,[12],128 µg/mL
same,MIC90,[12],512 µg/mL
same,MIC50,Bifidobacterium breve,128 µg/mL
same,MIC90,Bifidobacterium breve,1020 µg/mL
same,MIC,[13],> 1020 µg/mL
same,MIC50,[13],> 1020 µg/mL
same,MIC90,[13],> 1020 µg/mL
same,MIC50,Hoylesella loescheii,512 µg/mL
same,MIC90,Hoylesella loescheii,1020 µg/mL
same,MIC50,Actinomyces viscosus,128 µg/mL
same,MIC90,Actinomyces viscosus,1020 µg/mL
same,MIC50,[14],512 µg/mL
same,MIC90,[14],1020 µg/mL
same,MIC50,[15],256 µg/mL
same,MIC90,[15],1020 µg/mL
same,MIC50,Peptoniphilus harei,128 µg/mL
same,MIC90,Peptoniphilus harei,512 µg/mL
same,MIC50,Bacteroides stercoris,> 1020 µg/mL
same,MIC90,Bacteroides stercoris,> 1020 µg/mL
same,MIC50,Clostridium sporogenes,256 µg/mL
same,MIC90,Clostridium sporogenes,1020 µg/mL
same,MIC50,Collinsella aerofaciens,128 µg/mL
same,MIC90,Collinsella aerofaciens,1020 µg/mL
same,MIC50,Fusobacterium mortiferum,256 µg/mL
same,MIC90,Fusobacterium mortiferum,1020 µg/mL
same,MIC50,Clostridium symbiosum,256 µg/mL
same,MIC90,Clostridium symbiosum,1020 µg/mL
same,MIC50,Desulfovibrio sp.,256 µg/mL
same,MIC90,Desulfovibrio sp.,1020 µg/mL
same,MIC50,Anaerococcus prevotii,128 µg/mL
same,MIC90,Anaerococcus prevotii,512 µg/mL
same,MIC50,Parabacteroides merdae,1020 µg/mL
same,MIC90,Parabacteroides merdae,> 1020 µg/mL
same,MIC50,[Clostridium] innocuum,> 1020 µg/mL
same,MIC90,[Clostridium] innocuum,> 1020 µg/mL
same,MIC50,Eubacterium saburreum,128 µg/mL
same,MIC90,Eubacterium saburreum,1020 µg/mL
same,MIC50,Clostridium butyricum,256 µg/mL
same,MIC90,Clostridium butyricum,1020 µg/mL
same,MIC50,Bacteroides caccae,> 1020 µg/mL
same,MIC90,Bacteroides caccae,> 1020 µg/mL
